# Test results reported in ChEMBL document CHEMBL4376847, “Aryl Trehalose Derivatives as Vaccine Adjuvants for Mycobacterium tuberculosis” (J Med Chem, 2020).
# Active and inactive are the calls of the source. No cut-off for these calls is given here.
# Assays:
# [1] = molecular target: T1, C-type lectin domain family 4 member E (Mus musculus) (UniProt Q9R0Q8); test: Agonist activity at Mincle in mouse RAW264.7 cells assessed as TNF-alpha secretion at 0.1 to 100 uM incubated for 18 to 24 hrs by ELISA; assay type: cell-based
# T1 sequence (whole entry): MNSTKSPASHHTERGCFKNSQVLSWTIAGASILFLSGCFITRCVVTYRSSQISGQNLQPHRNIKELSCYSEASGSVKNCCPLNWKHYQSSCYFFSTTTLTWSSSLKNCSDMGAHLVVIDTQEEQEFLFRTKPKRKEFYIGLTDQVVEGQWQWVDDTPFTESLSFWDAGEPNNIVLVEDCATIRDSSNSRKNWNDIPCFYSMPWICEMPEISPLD
# [2] = molecular target: T1, C-type lectin domain family 4 member E (Mus musculus); test: Agonist activity at Mincle in mouse RAW264.7 cells assessed as IL-6 production at 0.1 to 100 uM incubated for 18 to 24 hrs by ELISA; assay type: cell-based
# [3] = molecular target: T2, C-type lectin domain family 4 member E (Homo sapiens) (UniProt Q9ULY5); test: Agonist activity at Mincle in human PBMC assessed as TNF-alpha secretion at 0.1 to 100 uM incubated for 18 to 24 hrs by ELISA
# T2 sequence (whole entry): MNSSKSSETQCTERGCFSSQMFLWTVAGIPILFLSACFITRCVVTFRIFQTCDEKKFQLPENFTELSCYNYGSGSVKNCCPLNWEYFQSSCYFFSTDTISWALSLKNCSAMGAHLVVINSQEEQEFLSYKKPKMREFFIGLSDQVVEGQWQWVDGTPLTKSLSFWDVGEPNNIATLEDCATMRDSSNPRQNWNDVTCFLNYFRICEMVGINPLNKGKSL
# [4] = molecular target: T2, C-type lectin domain family 4 member E (Homo sapiens); test: Agonist activity at Mincle in human PBMC assessed as increase in TNF-alpha production at 1 to 1000 uM incubated for 18 to 24 hrs by ELISA
# [5] = molecular target: T2, C-type lectin domain family 4 member E (Homo sapiens); test: Agonist activity at Mincle in human PBMC assessed as increase in IL-6 secretion at 0.1 to 100 uM incubated for 18 to 24 hrs by luminex multiplex assay
# [6] = molecular target: T2, C-type lectin domain family 4 member E (Homo sapiens); test: Agonist activity at Mincle in human PBMC assessed as increase in IL-1beta secretion at 0.1 to 100 uM incubated for 18 to 24 hrs by luminex multiplex assay
# [7] = molecular target: T2, C-type lectin domain family 4 member E (Homo sapiens); test: Agonist activity at Mincle in human PBMC assessed as increase in IL-23 at 0.1 to 100 uM incubated for 18 to 24 hrs by luminex multiplex assay
# [8] = molecular target: T2, C-type lectin domain family 4 member E (Homo sapiens); test: Agonist activity at Mincle in human PBMC assessed as increase in TNF-alpha level at 0.1 to 100 uM incubated for 18 to 24 hrs by luminex multiplex assay
# [9] = molecular target: T2, C-type lectin domain family 4 member E (Homo sapiens); test: Agonist activity at human Mincle receptor expressed in human HEK cells assessed as NF-kappaB activation incubated for 24 hrs by SEAP reporter gene assay; assay type: cell-based
# [10] = molecular target: T1, C-type lectin domain family 4 member E (Mus musculus); test: Agonist activity at mouse Mincle receptor expressed in human HEK cells assessed as NF-kappaB activation incubated for 24 hrs by SEAP reporter gene assay; assay type: cell-based
# Mus musculus [11] = test: Immuno-adjuvant activity in M72-immunized BALB/c mouse assessed as potentiation of antibody response to M72 by measuring serum anti-M72 IgG2a level at 10 nmol, im administered immediately and 14 and measured after 14 days by ELISA; assay type: functional, organism-based
# Mus musculus [12] = test: Immuno-adjuvant activity in M72-immunized BALB/c mouse assessed as potentiation of antibody response to M72 by measuring CD4+ IL-17A T-cells at 2 to 50 nmol, im administered immediately and 14 and measured after 5 days by immuno staining based flow cytometry; assay type: functional, organism-based
# Mus musculus [13] = test: Immuno-adjuvant activity in B42-immunized BALB/c mouse assessed as potentiation of antibody response to B42 by measuring CD4+ IL-17A T-cells at 2 to 50 nmol, im administered immediately and 14 and measured after 5 days by immuno staining based flow cytometry; assay type: functional, organism-based
# Mus musculus [14] = test: Immuno-adjuvant activity in M72-immunized BALB/c mouse assessed as potentiation of antibody response to M72 by measuring IFNgamma at 2 to 50 nmol, im administered immediately and 14 and measured after 5 days by immuno staining based flow cytometry; assay type: functional, organism-based
# Mus musculus [15] = test: Immuno-adjuvant activity in M72-immunized BALB/c mouse assessed as potentiation of antibody response to M72 by measuring IL-5 at 2 to 50 nmol, im administered immediately and 14 and measured after 5 days by immuno staining based flow cytometry; assay type: functional, organism-based
# Mus musculus [16] = test: Immuno-adjuvant activity in M72-immunized BALB/c mouse assessed as potentiation of antibody response to M72 by measuring serum anti-M72 IgG level at 10 nmol, im administered immediately and day 14 and measured after 14 days by ELISA; assay type: functional, organism-based
# Mus musculus [17] = test: Immuno-adjuvant activity in M72-immunized BALB/c mouse assessed as potentiation of antibody response to M72 by measuring serum anti-M72 IgG1 level at 10 nmol, im administered immediately and 14 and measured after 14 days by ELISA; assay type: functional, organism-based
SMILES,Activity [1],Activity [2],Activity [3],Activity [4],Activity [5],Activity [6],Activity [7],Activity [8],also measured
CC(C)(C)c1cc(C(C)(C)C)c(O)c(C(=O)OC[C@H]2O[C@H](O[C@H]3O[C@H](COC(=O)c4c(O)c(C(C)(C)C)cc(C(C)(C)C)c4O)[C@@H](O)[C@H](O)[C@H]3O)[C@H](O)[C@@H](O)[C@@H]2O)c1O,Active,inactive,Active,–,–,–,–,–,–
COc1ccc(/C=C/C(=O)OC[C@H]2O[C@H](O[C@H]3O[C@H](COC(=O)/C=C/c4ccc(OC)c(OC)c4)[C@@H](O)[C@H](O)[C@H]3O)[C@H](O)[C@@H](O)[C@@H]2O)cc1OC,–,–,–,Active,Active,Active,Active,Active,–
CCCCCCCCCCCCCCCCCCCCCC(=O)OC[C@H]1O[C@H](O[C@H]2O[C@H](COC(=O)CCCCCCCCCCCCCCCCCCCCC)[C@@H](O)[C@H](O)[C@H]2O)[C@H](O)[C@@H](O)[C@@H]1O,–,–,–,–,–,–,–,–,Activity [9]: inactive; Activity [10]: inactive; Activity (Mus musculus [11]): Active; Activity (Mus musculus [12]): Active; Activity (Mus musculus [13]): Active; Activity (Mus musculus [14]): inactive; Activity (Mus musculus [15]): inactive
CC(C)(C)c1cc(C(=O)OC[C@H]2O[C@H](O[C@H]3O[C@H](COC(=O)c4cc(C(C)(C)C)c(O)c(C(C)(C)C)c4)[C@@H](O)[C@H](O)[C@H]3O)[C@H](O)[C@@H](O)[C@@H]2O)cc(C(C)(C)C)c1O,Active,inactive,Active,–,–,–,–,–,–
CCOc1cc(OCC)cc(C(=O)OC[C@H]2O[C@H](O[C@H]3O[C@H](COC(=O)c4cc(OCC)cc(OCC)c4)[C@@H](O)[C@H](O)[C@H]3O)[C@H](O)[C@@H](O)[C@@H]2O)c1,–,–,–,Active,Active,Active,Active,Active,–
CC(C)(C)c1ccc(O)c(C(=O)OC[C@H]2O[C@H](O[C@H]3O[C@H](COC(=O)c4cc(C(C)(C)C)ccc4O)[C@@H](O)[C@H](O)[C@H]3O)[C@H](O)[C@@H](O)[C@@H]2O)c1,Active,inactive,Active,–,–,–,–,–,–
COc1cc(/C=C/C(=O)OC[C@H]2O[C@H](O[C@H]3O[C@H](COC(=O)/C=C/c4cc(OC)c(OC)c(OC)c4)[C@@H](O)[C@H](O)[C@H]3O)[C@H](O)[C@@H](O)[C@@H]2O)cc(OC)c1OC,–,–,–,Active,Active,Active,Active,Active,–
CC(C)(C)c1cc(C(=O)OC[C@H]2O[C@H](O[C@H]3O[C@H](COC(=O)c4cc(C(C)(C)C)cc(C(C)(C)C)c4)[C@@H](O)[C@H](O)[C@H]3O)[C@H](O)[C@@H](O)[C@@H]2O)cc(C(C)(C)C)c1,Active,inactive,Active,–,–,–,–,–,–
CC(C)(C)c1cc(C(=O)OC[C@H]2O[C@H](O[C@H]3O[C@H](COC(=O)c4cc(C(C)(C)C)cc(C(C)(C)C)c4O)[C@@H](O)[C@H](O)[C@H]3O)[C@H](O)[C@@H](O)[C@@H]2O)c(O)c(C(C)(C)C)c1,–,–,–,Active,Active,Active,Active,Active,Activity [9]: Dose-dependent effect; Activity [10]: Dose-dependent effect; Activity (Mus musculus [16]): inactive; Activity (Mus musculus [17]): inactive; Activity (Mus musculus [11]): Active; Activity (Mus musculus [12]): Active; Activity (Mus musculus [14]): inactive; Activity (Mus musculus [15]): inactive
CCCCCCCC(CCCCCCC)C(=O)OC[C@H]1O[C@H](O[C@H]2O[C@H](COC(=O)C(CCCCCCC)CCCCCCC)[C@@H](O)[C@H](O)[C@H]2O)[C@H](O)[C@@H](O)[C@@H]1O,–,–,–,–,–,–,–,–,Activity (Mus musculus [16]): Active; Activity (Mus musculus [17]): Active; Activity (Mus musculus [11]): Active
COc1cc(C)c(C(=O)OC[C@H]2O[C@H](O[C@H]3O[C@H](COC(=O)c4c(C)cc(OC)cc4OC)[C@@H](O)[C@H](O)[C@H]3O)[C@H](O)[C@@H](O)[C@@H]2O)c(OC)c1,–,–,–,Active,Active,Active,Active,Active,–
CCCCCCCCCCCCCCCCCCCCCCC(C(=O)OC[C@H]1O[C@H](O[C@H]2O[C@H](COC(=O)C(CCCCCCCCCCCCCCCCCCCCCC)C(O)CCCCCCCCCCCCCCCCCC3CC3CCCCCCCCCCCCCCC3CC3CCCCCCCCCCCCCCCCCC)[C@@H](O)[C@H](O)[C@H]2O)[C@H](O)[C@@H](O)[C@@H]1O)C(O)CCCCCCCCCCCCCCCCCC1CC1CCCCCCCCCCCCCCC1CC1CCCCCCCCCCCCCCCCCC (some centres not stated),–,–,–,–,–,–,–,–,Activity [9]: inactive; Activity [10]: inactive
